Experimental data: US11384066B1, “Heterocyclic compounds useful as aurora a selective inhibitors” (Jacobio Pharmaceuticals Co., Ltd., priority 2020, dated 2022)

What was measured:
[1] = target: Aurora A (Homo sapiens (Human), UniProt O14965); experiment: Aurora A kinase assay (mobility shift assay); assay type: biochemical
Description: (§1) Example A: Evaluation of Aurora a and Aurora B Inhibitory Effect—Kinase Assay
(§2) The inhibitory activities of a test compound against Aurora A and Aurora B were measured according to the following method.
(§3) The IC50 value of Aurora A and Aurora B kinase was performed by Sundia MediTech Co. Ltd. using Mobility shift assay.
(§4) • (1) Prepare a 1× kinase buffer [50 mM 4-(2-hydroxyethyl)-1-piperazineethanesulfonic acid (HEPES), PH 7.5, 0.01% Brij-35, 10 mM MgCl2, 2 mM dithiothreitol (DTT)]. • (2) Prepare compound:
(§5) The testing compound was dissolved with DMSO. The testing compound was diluted up to 100× final concentration in a 384-well plate. Transfer 250 nL of the compound dilution to a 384-well assay plate using Echo 550. 100% DMSO of 250 nL was added to the negative control well and the positive control well. • (3) Prepare a 2.5× enzyme solution using the above 1× kinase buffer. • (4) Add 10 μL of the 2.5× enzyme solution to the compound well and the positive control well of the 384-well assay plate. Add 10 μL of the 1× kinase buffer to the negative control well. • (5) The 384-well plate was centrifuged at 1000 rpm for 30 seconds and incubated at room temperature for 10 min. • (6) A mixture of ATP and Kinase substrate 21 with a final concentration of 25/15× was prepared by the 1× kinase buffer. • (7) Add 15 μL of the mixture of 25/15×ATP and kinase substrate solution 21 to start reaction. • (8) The 384-well plate was centrifuged at 1000 rpm for 30 seconds and incubated at room temperature. • (9) 30 μL of the stop and detection buffer was added to stop the kinase reaction and centrifuged at 1000 rpm for 30 seconds. • (10) Collect data on Caliper EZ ReaderII. Data Analysis:
(§6) Conversion %_sample is conversion rate data of samples. Conversion %_min is mean value of negative control (conversion rate data without enzyme activation). Conversion %_max is mean positive control (conversion rate data without compound).
(§7) The log of concentration is on the X axis, and the percentage inhibition is on the Y axis. Fit the Quantitative effect curves with log (inhibitor) vs. response—Variable slope in GraphPad Prism5 obtain IC50 values. Equation used is Y=Bottom+(Top−Bottom)/(1+10^((Log IC50−X)*HillSlope)).

[2] = target: Aurora B (Homo sapiens (Human), UniProt Q96GD4); experiment: Aurora B kinase assay (mobility shift assay); assay type: biochemical; details: ratio of Aurora B IC50 to Aurora A IC50
Description: as §1, §2, §3, §4, §5, §6, §7

[3] = test system: NCI-H2171 cells; experiment: Cell proliferation assay (CellTiter-Glo), NCI-H2171; assay type: cell-based; details: Homo sapiens, NCI-H2171, 120 h, 5 days
Description: (§8) Example B: Cell Proliferation Assay
(§9) NCI-H2171 and NCI-H446 cell proliferation analysis were conducted by CellTiter-Glo (Promega, Cat #G1111). The cells will be harvested respectively during the logarithmic growth period and counted with hemocytometer. […] Adjust NCI-H2171 and NCI-H446 cells concentrations to 1.0×10^5 cells/mL with complete medium (RPMI-1640 medium supplemented with 10% (v/v) fetal bovine serum). 100 μL/cell suspensions were added to 96-well plates, and the final cell densities were 1.0×10^4 cells/well. The plate will be cultured overnight in 5% CO2 and 95% humidity at 37° C. The next day, the test compound was dissolved in DMSO as stock solution. Then the different concentrations of compound were added into 96-well plates. The plates will be cultured for 5 days, then measured by means of CellTiter-Glo assay. 50 μL/cell CellTiter-Glo reagent was added into 96-well plates. Shock incubation for 5 min and then stand incubation for 10 min at room temperature. Record the Luminosity values using an microplate spectrophotometer (Spark, Tecan). Fit the data using GraphPad 8.0 and obtain IC50 values.
(§10) Formula: Survival (%)=(Lumtest−Lummedia control)/(Lumcell control−Lummedia control)×100%

[4] = test system: NCI-H446 cells; experiment: Cell proliferation assay (CellTiter-Glo), NCI-H446; assay type: cell-based; details: Homo sapiens, NCI-H446, 120 h, 5 days
Description: as §8, §9, §10

[5] = test system: NCI-H446 human small cell lung cancer xenograft; experiment: In vivo anti-tumor efficacy, NCI-H446 xenograft model; set-up: species or system BALB/c nude mice; details: 15 mg/kg po., BID × 10days, QD × 19days, treatment 29 days, Table C does not say which xenograft (NCI-H446 or NCI-H69); for TV (mm^3): mean ± sem
Description: This study is to examine the anti-tumor efficacy of test compounds in NCI-H446 and NCI-H69 human small cell lung cancer xenograft model in BALB/c nude mice. Each mouse was inoculated subcutaneously at the right flank region with NCI-H446 (3×10^6) and NCI-H69 cells (5×10^6) in 0.1 mL of PBS and Matrigel (1:1) for tumor development. The mouse were randomized according to tumor size and weight, the treatment began when the mean tumor size reached 100-200 mm^3. Anti-tumor activity was assessed according to relative tumor inhibition rate (TGI).
Tumor volumes were measured in two dimensions using a caliper, and the volume was expressed in mm^3 using the formula: V=0.5 a×b^2 where a and b are the long and short diameters of the tumor, respectively. Statistical analysis of difference in tumor volume among the groups were performed using one-way ANOVA. All data was analyzed using SPSS 22.0 software, p<0.05 was considered to be statistically significant.

[6] = PK in rat; assay type: in vivo; details: rat, plasma, SD male rats; for clearance / Vd: IV: 3 mg/kg; for Vd: read-out: Vss; for AUC(0-t) / half-life / Cmax: PO: 10 mg/kg; for bioavailability: PO: 10 mg/kg vs IV: 3 mg/kg; for Cmax: read-out: Cmax
Description: The compounds were dissolved into 10% DMSO, 30% PEG400, and 60% saline to obtain a solution. SD male rats were given the compound orally and intravenously. Then plasma samples were collected at 0 hour (pre-dose), 0.25, 0.5, 1, 2, 4, 7, 24 hours post-dose. Plasma drug concentration was detected by LC-MS/MS. Pharmacokinetic parameters were calculated using WinNonlin's software with non-compartmental model.

Aurora B, sequence (Q96GD4 whole entry): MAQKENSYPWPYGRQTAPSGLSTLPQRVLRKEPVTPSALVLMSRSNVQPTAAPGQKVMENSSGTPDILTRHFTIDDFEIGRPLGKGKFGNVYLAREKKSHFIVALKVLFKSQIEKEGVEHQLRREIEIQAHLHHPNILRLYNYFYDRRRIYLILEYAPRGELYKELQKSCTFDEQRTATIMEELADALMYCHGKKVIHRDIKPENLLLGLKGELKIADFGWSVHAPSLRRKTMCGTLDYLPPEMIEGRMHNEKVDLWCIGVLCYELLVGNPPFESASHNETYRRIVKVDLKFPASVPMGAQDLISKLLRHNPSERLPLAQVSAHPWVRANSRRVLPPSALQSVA
Aurora A, sequence (O14965 whole entry): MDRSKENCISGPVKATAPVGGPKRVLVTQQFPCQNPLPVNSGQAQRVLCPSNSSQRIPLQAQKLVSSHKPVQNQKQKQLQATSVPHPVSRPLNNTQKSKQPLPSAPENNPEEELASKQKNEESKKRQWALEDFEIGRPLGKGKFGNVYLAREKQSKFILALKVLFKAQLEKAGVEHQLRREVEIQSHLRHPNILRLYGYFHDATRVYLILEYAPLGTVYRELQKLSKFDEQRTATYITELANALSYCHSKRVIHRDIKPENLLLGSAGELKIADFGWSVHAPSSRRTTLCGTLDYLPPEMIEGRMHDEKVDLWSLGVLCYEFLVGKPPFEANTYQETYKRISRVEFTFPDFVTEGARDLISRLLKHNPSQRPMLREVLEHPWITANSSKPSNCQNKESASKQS

SMILES | IC50 [1] | IC50 Ratio Aur B/Aur A [2] | IC50 [3] | IC50 [4] | clearance [6] | Vd [6] | AUC(0-t) [6] | half-life [6] | bioavailability [6] | Cmax [6] | TGITV(%) [5] | TV (mm^3) [5]
Cc1cc(Nc2nc(C[C@@]3(C(=O)O)CCN(Cc4cccc(Cl)c4F)[C@H](C)C3)ccc2F)[nH]n1 [Example 5, (2R,4R)-1-(3-chloro-2-fluorobenzyl)-4-((5-fluoro-6-((3-methyl-1H-pyrazol-5-yl)amino)pyridin-2-yl)methyl)-2-methylpiperidine-4-carboxylic acid] | 0.59 nM | 1311 | 30 nM | 80 nM | 2.74 mL/min/kg | 0.56 L/kg | 179 µg·h/mL | 255 min | 168% | 26600 ng/mL | 98% | 27 ± 5 mm^3
Cc1cc(Nc2nc(C[C@@]3(C(=O)O)CCN(Cc4cccc(Cl)c4F)[C@H](C)C3)cc(C)c2F)n[nH]1 [Example 78, (2R,4R)-1-(3-chloro-2-fluorobenzyl)-4-((5-fluoro-4-methyl-6-((5-methyl-1H-pyrazol-3-yl)amino)pyridin-2-yl)methyl)-2-methylpiperidine-4-carboxylic acid] | 0.37 nM | 1219 | 13 nM | 32 nM | 0.585 mL/min/kg | 0.22 L/kg | 236 µg·h/mL | 277 min | 85.8% | 28900 ng/mL | 96% | 65 ± 14 mm^3
CC[C@@H]1C[C@](Cc2nc(Nc3cc(C)[nH]n3)ccc2F)(C(=O)O)CCN1Cc1cccc(Cl)c1F [Example 8, (2R,4R)-1-(3-chloro-2-fluorobenzyl)-2-ethyl-4-((3-fluoro-6-((5-methyl-1H-pyrazol-3-yl)amino)pyridin-2-yl)methyl) piperidine-4-carboxylic acid] | 1.2 nM | 1288 | 75 nM | 119 nM |  |  |  |  |  |  |  | 

More lines, main results first:

IC50 [1] | IC50 Ratio Aur B/Aur A [2] | IC50 [3] | IC50 [4] | clearance [6] | Vd [6] | AUC(0-t) [6] | half-life [6] | bioavailability [6] | Cmax [6] | SMILES | TGITV(%) [5] | TV (mm^3) [5]
0.64 nM | 582 | 23 nM | 56 nM |  |  |  |  |  |  | Cc1cc(Nc2cc(Cl)c(F)c(C[C@@]3(C(=O)O)CCN(Cc4cccc(Cl)c4F)[C@H](C)C3)n2)n[nH]1 [Example 72, (2R,4R)-1-(3-chloro-2-fluorobenzyl)-4-((4-chloro-3-fluoro-6-((5-methyl-1H-pyrazol-3-yl)amino)pyridin-2-yl)methyl)-2-methylpiperidine-4-carboxylic acid] | 89% | 176 ± 25 mm^3
0.7 nM | 443 | 18 nM | 24 nM | 1.05 mL/min/kg | 0.22 L/kg | 202 µg·h/mL | 177 min | 127% | 21000 ng/mL | Cc1cc(Nc2cc(C)c(F)c(C[C@@]3(C(=O)O)CCN(Cc4cccc(Cl)c4F)[C@H](C)C3)n2)n[nH]1 [Example 49, (2R,4R)-1-(3-chloro-2-fluorobenzyl)-4-((3-fluoro-4-methyl-6-((5-methyl-1H-pyraz-ol-3-yl)amino)pyridin-2-yl)methyl)-2-methylpiperidine-4-carboxylic acid] | 90% | 160 ± 26 mm^3
0.52 nM | 845 | 25 nM | 73 nM | 1.45 mL/min/kg | 0.26 L/kg | 173 µg·h/mL | 217 min | 140% | 16100 ng/mL | Cc1cc(Nc2cc(C)c(F)c(C[C@@]3(C(=O)O)CCN(Cc4c(F)ccc(Cl)c4F)[C@H](C)C3)n2)n[nH]1 [Example 50, (2R,4R)-1-(3-chloro-2,6-di-fluorobenzyl)-4-((3-fluoro-4-methyl-6-((5-methyl-1H-pyra-zol-3-yl)amino)pyridin-2-yl)-methyl)-2-methylpiperidine-4-carboxylic acid] |  | 
0.33 nM | 6112 | 55 nM | 103 nM | 0.67 mL/min/kg | 0.18 L/kg | 215 µg·h/mL | 378 min | 86% | 34900 ng/mL | Cc1cc(Nc2ccc(F)c(C[C@@]3(C(=O)O)CCN(Cc4c(F)ccc(Cl)c4F)[C@H](C)C3)n2)n[nH]1 [Example 6, (2R,4R)-1-(3-chloro-2,6-difluorobenzyl)-4-((3-fluoro-6-((5-methyl-1H-pyrazol-3-yl)amino)pyridin-2-yl)methyl)-2-methylpiperidine-4-carboxylic acid] |  | 
